{"source": "patent EP1206482B1", "about": "“METHOD FOR COUPLING, IN SOLUTION, A PEPTIDE WITH AT LEAST ANOTHER COMPOUND AND USES THEREOF” (INSTITUT PASTEUR DE LILLE, priority 1999, dated 2001)", "tested_on": "molécules de classe II du CMH", "assay": "Quantification of surface expression of MHC class II molecules by flow cytometry (anti-HLA DR-FITC) after 24 h stimulation of cells with peptides or lipopeptides", "format": "cell-based, humaine", "settings": "for Moyenne: mean fluorescence of treated COLO 205 cells; for Rapport: ratio of mean fluorescence of treated to untreated COLO 205 cells", "experimental": "Les cellules COLO 205 (lignée cellulaire humaine issue d'un carcinome de colon) proviennent de la banque de cellules ATCC (American Type Culture Collection). Elles sont cultivées en milieu RPMI 1640 (Gibco BRL, Courbevoie, France) avec 10% de sérum de veau foetal (SVF) et 5 mM de pyruvate de sodium, et incubées à 37°C en présence de 5% de CO2. Les cellules sont stimulées pendant 24 heures avec différentes concentrations (35, 50 ou 65 µM) de peptides ou de lipopeptides. Les cellules sont ensuite marquées pendant 1 heure à 4°C avec 10 µl d'anticorps de souris anti-HLA DR de classe-II, couplé à la FITC (clone TAL, 1B5, Cymbus Biotechnology Ltd, Hants, Grande-Bretagne) dans 10% de SVF/PBS, puis lavées 3 fois par du SVF/PBS.\nL'expression de surface des molécules de classe II du CMH est analysée par cytométrie de flux sur un cytomètre Coulter EPICS II, à raison de 10 000 évènements par échantillon. L'intensité de fluorescence observée est directement proportionnelle à la quantité de molécules de classe II du CMH présente à la surface des cellules. La moyenne de fluorescence observée pour les cellules non traitées et pour les cellules traitées (colonne « Moyenne» dans le tableau II) permet de calculer un rapport entre la moyenne de fluorescence des cellules traitées et la moyenne de fluorescence des cellules non traitées (colonne « Rapport » dans le tableau II).", "note": "Starred links: 1 amine or outer side, 2 acyl side, 3 side chain; linkers in the order of their positions; H or OH if unused. Non-standard residues stand in square brackets, D forms with d. No end group written: not given here. Hydrazinoacetyl = O=C(CNN[*:1])[*:2]"}
{"substance": "palm-NH-NH-CH2CO-PSRENQNAVKIQKLSVVLRREQKHR-VERLAFRNQSLPF-NH2 [peptide 23Sc]", "values": [{"measurement": "Moyenne", "setting": "35 µM", "value": "4,72"}, {"measurement": "Moyenne", "setting": "50 µM", "value": "4,51"}, {"measurement": "Moyenne", "setting": "65 µM", "value": "5,55"}, {"measurement": "Rapport", "setting": "35 µM", "value": "9,16"}, {"measurement": "Rapport", "setting": "50 µM", "value": "6,15"}, {"measurement": "Rapport", "setting": "65 µM", "value": "7,5"}]}
{"substance": "H2N-NH-CH2CO-PSRENQNAVKIQKLSVVLRREQKHRVERLAFRNQSLPF-NH2 ([Hydrazinoacetyl]PSRENQNAVKIQKLSVVLRREQKHRVERLAFRNQSLPF-NH2; N-terminus assumed; SMILES CC[C@H](C)[C@H](NC(=O)[C@H](CCCCN)NC(=O)[C@@H](NC(=O)[C@H](C)NC(=O)[C@H](CC(N)=O)NC(=O)[C@H](CCC(N)=O)NC(=O)[C@H](CC(N)=O)NC(=O)[C@H](CCC(=O)O)NC(=O)[C@H](CCCNC(=N)N)NC(=O)[C@H](CO)NC(=O)[C@@H]1CCCN1C(=O)CNN)C(C)C)C(=O)N[C@@H](CCC(N)=O)C(=O)N[C@@H](CCCCN)C(=O)N[C@@H](CC(C)C)C(=O)N[C@@H](CO)C(=O)N[C@H](C(=O)N[C@H](C(=O)N[C@@H](CC(C)C)C(=O)N[C@@H](CCCNC(=N)N)C(=O)N[C@@H](CCCNC(=N)N)C(=O)N[C@@H](CCC(=O)O)C(=O)N[C@@H](CCC(N)=O)C(=O)N[C@@H](CCCCN)C(=O)N[C@@H](Cc1c[nH]cn1)C(=O)N[C@@H](CCCNC(=N)N)C(=O)N[C@H](C(=O)N[C@@H](CCC(=O)O)C(=O)N[C@@H](CCCNC(=N)N)C(=O)N[C@@H](CC(C)C)C(=O)N[C@@H](C)C(=O)N[C@@H](Cc1ccccc1)C(=O)N[C@@H](CCCNC(=N)N)C(=O)N[C@@H](CC(N)=O)C(=O)N[C@@H](CCC(N)=O)C(=O)N[C@@H](CO)C(=O)N[C@@H](CC(C)C)C(=O)N1CCC[C@H]1C(=O)N[C@@H](Cc1ccccc1)C(N)=O)C(C)C)C(C)C)C(C)C) [peptide 22Sc]", "values": [{"measurement": "Moyenne", "setting": "35 µM", "value": "1,36"}, {"measurement": "Moyenne", "setting": "50 µM", "value": "1,60"}, {"measurement": "Moyenne", "setting": "65 µM", "value": "1,67"}, {"measurement": "Rapport", "setting": "35 µM", "value": "1,8"}, {"measurement": "Rapport", "setting": "50 µM", "value": "2,18"}, {"measurement": "Rapport", "setting": "65 µM", "value": "2,27"}]}
